{
  "source": "patent US20200390718A1",
  "about": "“METHODS AND COMPOSITIONS FOR […]-VIRAL TRANSFER VECTOR IMMUNE RESPONSE” (Selecta Biosciences, Inc., priority 2019, published 2020)",
  "tested_on": "AAV8-SEAP",
  "assay": "Serum SEAP expression after AAV8-SEAP injections",
  "assay_type": "in vivo, C57BL/6 female mice",
  "settings": "after the second boost at d140 (FIG. 2A) or d147 (FIG. 2B); AAV8-SEAP 1×10^10 VG",
  "procedure": "Three groups of C57BL/6 female mice (6 mice each) were injected (r.o.) on days 0 and 56 with 1×10^10 VG of AAV8-SEAP without any nanoparticles (one group) or with ImmTOR™ at 100 μg of rapamycin (synthetic nanocarriers comprising rapamycin, such as those produced in Example 1; two groups). Of the […] two groups, one group was left untreated and one was additionally treated with systemic dexamethasone (i.p., 200 μg in 100 μL per injection) on injection days 0 and 56.\nAt time indicated in FIGS. 1A and 1B (days 14, 35, 49, 63 and 71 or days 13, 19, 33, 48, 62 and 69), mice were bled, serum separated from whole blood, and stored at −20±5° C. until analysis. SEAP levels in serum were measured using an assay kit from ThermoFisher Scientific (Waltham, Mass., USA). Briefly, sera samples and positive controls were diluted in dilution buffer, incubated at 65° C. for 30 min, then cooled to room temperature, and plated into a 96-well format. Then, assay buffer (5 min) and substrate (20 min) were added and the plates were read on a luminometer (477 nm).\nThis has warranted a series of further studies in which four groups of C57BL/6 female mice (6 mice each) were injected (r.o.) on days 0, 56 and 140 or 147 with 1×10^10 VG of AAV8-SEAP without any nanoparticles (two groups) or with ImmTOR™ at 100 μg of rapamycin (synthetic nanocarriers comprising rapamycin; two groups). […]",
  "data": [
    {"compound": "C[C@@H]1C[C@H]2[C@@H]3CCC4=CC(=O)C=C[C@]4(C)[C@@]3(F)[C@@H](O)C[C@]2(C)[C@@]1(O)C(=O)CO", "note": "[dexamethasone, 9α-fluoro-11β,17α,21-trihydroxy-16α-methylpregna-1,4-diene-3,20-dione]", "values": [
      {"measurement": "benefit in SEAP expression vs. untreated", "result": "10-80%"}
    ]}
  ]
}
